Experimental data published in patent US20250281672A1, “IDENTIFICATION OF PRO- AND ANTI-INFLAMMATORY LIPIDS RELATING TO IMMUNE RESPONSE TO MEDICAL IMPLANTS” (William Marsh Rice University, priority 2021, published 2025).

Experiments:
[1] = test system: gonadal fat pads of C57BL/6 adult male mice, a pro-fibrotic mouse model; test: 28-day implantation of functionalized PDMS disks on gonadal fat pads (IP space); gross fibrosis and histology; assay type: in vivo; details: 28 days
Experimental: PDMS disk/pillar preparation & functionalization. PDMS implants were made with SYLGARD™ 184 silicone elastomer by mixing the base and curing agent in a ratio of 10:1 and letting sit 24 hours at room temperature in either sheets or pillar molds. The PDMS sheets were punched with 4 mm biopsy punches to make disks, or the pillar were removed from their molds, and plasma cleaned under general atmospheric air on each side for 1 minute at high Rf, 700-800 torr. Samples were then functionalized by one of two methods: Method 1) for the methacryloyl modified Z2-Y12 and Z2-Y12 Analog, the PDMS disks were incubating in a solution of DMSO:ACN (Sigma) (60:40) overnight under nitrogen gas flow. For the methacryloyl modified Z1-Y15 (0.2M), methacryloyl Z1-Y15 was added to DMSO (0.3 w/v %) and heated to 80° C. Separately Milli-Q H2O was heated to 80° C. and added to the reaction dropwise for a final mixture of 1:4 DMSO:Milli-Q H2O. The mixture was left stirring under reduced heat 40-50° C. under high stirring conditions ([…]). PDMS sheets were added to this mixture and allowed to stir overnight under Nitrogen gas. Disks were submerged in 1×PBS and left to soak for 10 minutes. Samples were then washed 3× with 1×PBS after overnight functionalization. […] Functionalized disks were maintained at −80° C. until they were ready for implantation. […]

brain of mice = test: 2-week PDMS pillar implantation in mouse brain; histology and immunohistochemistry; assay type: in vivo; details: PDMS pillars, 2 weeks
Experimental: Mouse Brain Implantation. C57BL/6J mice were allowed to acclimate for greater than one week prior to surgical manipulation. After the acclimation period, 24 hours prior to surgery, the mice were premedicated with 5 mg/kg meloxicam SC for analgesia. 30 minutes prior to surgery, the mice were given 30 mg/kg trimethoprim-sulfamethoxazole PO for antimicrobial prophylaxis. The mice were then anesthetized with 3% isoflurane with 1 L/min O2 in an induction chamber and then transferred to a nose cone with 1-3% inhaled isoflurane with 0.5 L/min O2 for maintenance anesthesia. Depth of anesthesia was monitored testing for no response to toe pinch throughout surgery. Immediately following induction, the mouse was placed on a warming pad and maintained on the warming pad throughout surgery. The fur on the mouse head was trimmed with an electric razor and topical anesthetic with 2.5% lidocaine/prilocaine cream was applied for several minutes. The mice were then given 5 mg/kg meloxicam SC and 0.1 mg/kg buprenorphine SC for analgesia. The trimmed mouse scalp was then scrubbed with 7.5% povidone-iodine solution. Sterile neoprene surgical gloves (Medichoice) and sterile autoclaved instruments were used to maintain sterile technique throughout surgery. […]

In the case of `NCCOCCOCCOCCn1cc(CN2CCS(=O)(=O)CC2)nn1` [Z1], the “adherent peripheral tissue on disks (FBR and fibrosis)” value ([1]; PDMS disks, gonadal fat pads) is reported as “virtually no adherent peripheral tissue was found”, the “interfacial fibrotic layer on the implant surface (histology)” value ([1]; tissue around PDMS implants) is reported as “prevented the development of an interfacial fibrotic layer” and the “accumulation/migration of immune cells at the implant site (immunohistochemistry)” value (brain of mice) is reported as “not observed”. The “fibrotic strands of cells at the implant site (histology)” value (brain of mice) was “absent”.
